Patent US8067424B2, “Selective inhibitors for cyclin-dependent kinases” (Emory University, priority 2007, dated 2011)
Read-outs that look alike come from different tables or passages of the source.

How the values were obtained:
[1] = molecular target: MAPKAP-K3 (Homo sapiens, UniProt Q16644); test: Kinase screen: MAPKAP-K3 assay; format: biochemical; conditions: read-out: Mean Remaining Enzyme Activity (%)
Experimental: Generally, the same procedure was used for all assays. Since the total assay volume was 25.5 microliters, 0.5 microliters of inhibitors at 51× assay concentration were added to the plates before any other addition.
The basic procedure was to add 0.5 microliters inhibitor/control in DMSO to plate. Fifteen microliters of enzyme/substrate/buffer mix were added and incubated for 5 min. Ten microliters MgATP at the relevant concentration were added and incubated for 30 min. The assay was stopped by adding 5 microliters of 3% orthophosphoric acid. The assay was transferred to a p81 filter plate and read in a scintillation counter of 30 sec/well. Note that this assay procedure was not followed for MKK1, which instead involved a two-step assay, and PKC alpha, which required the addition of lipid vesicles.
MAPKAP-K3 assay: 5-20 mU of MAPKAP-K3 (diluted in 50 mM Tris (pH 7.5), 0.1 mM EGTA, 1 mg/ml BSA, 0.1%, b-Mercaptoethanol) was assayed against substrate peptide ([…]) (SEQ ID NO: 3) in a final volume of 25.5 μl containing 50 mM Tris (pH 7.5), 0.1 mM EGTA, 0.1%, b-Mercaptoethanol, 30 μM substrate peptide, 10 mM magnesium acetate and 0.02 mM [33P-g-ATP] (500-1000 cpm/pmole) and incubated for 30 mins at room temperature. Assays were stopped by addition of 5 μl of 0.5M (3%) orthophosphoric acid. Assays were harvested onto P81 Unifilter plates using a wash buffer of 50 mM orthophosphoric acid.

[2] = test system: MDA-MB-231/ATCC; conditions: for Mean Optical Densities / Percent Growth: MDA-MB-231/ATCC
[3] = test system: SW-620
[4] = test system: CAKI-1
[5] = test system: HT29
[6] = test system: UO-31
[7] = test system: UACC-62; test: cells; conditions: Homo sapiens
[8] = test system: EKVX; conditions: for Mean Optical Densities / Percent Growth: EKVX
[9] = test system: NCI-H23; test: cells; conditions: Homo sapiens
[10] = test system: HOP-92
[11] = test system: SF-268; test: cells; conditions: Homo sapiens
[12] = test system: KM12
[13] = test system: PC-3; test: cells; conditions: Homo sapiens
[14] = test system: HCT-15
[15] = SW-620, log10 concentration −4.0
[16] = SW-620, log10 concentration −5.0
[17] = SW-620, log10 concentration −7.0
[18] = SW-620, log10 concentration −8.0
[19] = CAKI-1, log10 concentration −4.0
[20] = CAKI-1, log10 concentration −5.0
[21] = CAKI-1, log10 concentration −6.0
[22] = CAKI-1, log10 concentration −7.0
[23] = CAKI-1, log10 concentration −8.0
[24] = UO-31, log10 concentration −4.0
[25] = UO-31, log10 concentration −5.0
[26] = UO-31, log10 concentration −6.0
[27] = UO-31, log10 concentration −7.0
[28] = UO-31, log10 concentration −8.0
[29] = HOP-92, log10 concentration −4.0
[30] = HOP-92, log10 concentration −5.0
[31] = HOP-92, log10 concentration −6.0
[32] = HOP-92, log10 concentration −7.0
[33] = HOP-92, log10 concentration −8.0
[34] = HCT-15, log10 concentration −4.0
[35] = HCT-15, log10 concentration −5.0
[36] = HCT-15, log10 concentration −6.0
[37] = HCT-15, log10 concentration −7.0
[38] = HCT-15, log10 concentration −8.0

Chain of MAPKAP-K3 (Q16644 whole entry, species assumed): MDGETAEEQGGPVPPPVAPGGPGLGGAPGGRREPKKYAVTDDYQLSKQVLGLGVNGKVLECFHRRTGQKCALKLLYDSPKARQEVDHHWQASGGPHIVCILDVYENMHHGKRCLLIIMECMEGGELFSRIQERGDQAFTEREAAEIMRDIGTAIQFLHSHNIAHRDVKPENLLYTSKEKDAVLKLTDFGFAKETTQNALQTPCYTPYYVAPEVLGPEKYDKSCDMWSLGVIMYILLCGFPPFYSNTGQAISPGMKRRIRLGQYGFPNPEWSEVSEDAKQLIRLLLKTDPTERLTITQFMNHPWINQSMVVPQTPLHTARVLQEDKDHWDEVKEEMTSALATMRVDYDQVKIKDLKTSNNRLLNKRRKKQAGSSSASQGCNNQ

CC(C)c1cnn2c(NCc3ccccc3)cc(NCCCCCCCN)nc12 [BS-181]
remaining activity at 10 µM [1]: 119%

CC(C)c1cnn2c(NCc3ccccc3)cc(N[C@@H](CO)[C@H](O)CO)nc12 [ICEC0318, (3S)-3-(7-(Benzylamino)-3-isopropylpyrazolo[1,5-a]pyrimidin-5-ylamino)butane-1,2,4-triol]
TGI ([2]; MDA-MB-231/ATCC (Breast Cancer)): >1.00E−4 | Mean Optical Densities ([2]; log10 concentration −4.0): 0.482 | Percent Growth ([2]; log10 concentration −4.0): 11% | Mean Optical Densities ([2]; log10 concentration −5.0): 0.529 | Percent Growth ([2]; log10 concentration −5.0): 19% | Mean Optical Densities ([2]; log10 concentration −6.0): 0.548 | Percent Growth ([2]; log10 concentration −6.0): 22% | Mean Optical Densities ([2]; log10 concentration −7.0): 1.039 | Percent Growth ([2]; log10 concentration −7.0): 101% | Mean Optical Densities ([2]; log10 concentration −8.0): 1.087 | Percent Growth ([2]; log10 concentration −8.0): 109% | TGI ([3]; SW-620 (Colon Cancer)): 1.00E−6 | Mean Optical Densities [3, 15]: 0.101 | Percent Growth [3, 15]: −29% | Mean Optical Densities [3, 16]: 0.125 | Percent Growth [3, 16]: −12% | Mean Optical Densities ([3]; SW-620, log10 concentration −6.0): 0.412 | Mean Optical Densities [3, 17]: 0.782 | Percent Growth [3, 17]: 92% | Mean Optical Densities [3, 18]: 0.839 | Percent Growth [3, 18]: 100% | TGI ([4]; CAKI-1 (Renal Cancer)): >1.00E−4 | Mean Optical Densities [4, 19]: 0.358 | Percent Growth [4, 19]: 2% | Mean Optical Densities [4, 20]: 0.372 | Percent Growth [4, 20]: 5% | Mean Optical Densities [4, 21]: 0.423 | Percent Growth [4, 21]: 18% | Mean Optical Densities [4, 22]: 0.631 | Percent Growth [4, 22]: 71% | Mean Optical Densities [4, 23]: 0.704 | Percent Growth [4, 23]: 90% | TGI ([5]; HT29 (Colon Cancer)): 3.66E−5 | Mean Optical Densities ([5]; HT29, log10 concentration −4.0): 0.190 | Percent Growth ([5]; HT29, log10 concentration −4.0): −2% | Mean Optical Densities ([5]; HT29, log10 concentration −5.0): 0.216 | Percent Growth ([5]; HT29, log10 concentration −5.0): 2% | Mean Optical Densities ([5]; HT29, log10 concentration −6.0): 0.247 | Percent Growth ([5]; HT29, log10 concentration −6.0): 5% | Mean Optical Densities ([5]; HT29, log10 concentration −7.0): 1.345 | Percent Growth ([5]; HT29, log10 concentration −7.0): 100% | Mean Optical Densities ([5]; HT29, log10 concentration −8.0): 1.394 | Percent Growth ([5]; HT29, log10 concentration −8.0): 105% | TGI ([6]; UO-31 (Renal Cancer)): 2.07E−5 | Mean Optical Densities [6, 24]: 0.522 | Percent Growth [6, 24]: −4% | Mean Optical Densities [6, 25]: 0.557 | Percent Growth [6, 25]: 2% | Mean Optical Densities [6, 26]: 0.578 | Percent Growth [6, 26]: 4% | Mean Optical Densities [6, 27]: 1.371 | Percent Growth [6, 27]: 89% | Mean Optical Densities [6, 28]: 1.378 | Percent Growth [6, 28]: 90% | GI50 ([7]; UACC-62): 155 nM | CC50 ([7]; UACC-62, read-out: LC50): 644 nM | TGI ([8]; EKVX (Non-Small Cell Lung Cancer)): >1.00E−4 | Mean Optical Densities ([8]; log10 concentration −4.0): 0.740 | Percent Growth ([8]; log10 concentration −4.0): 4% | Mean Optical Densities ([8]; log10 concentration −5.0): 0.817 | Percent Growth ([8]; log10 concentration −5.0): 9% | Mean Optical Densities ([8]; log10 concentration −6.0): 0.841 | Percent Growth ([8]; log10 concentration −6.0): 11% | Mean Optical Densities ([8]; log10 concentration −7.0): 1.830 | Percent Growth ([8]; log10 concentration −7.0): 83% | Mean Optical Densities ([8]; log10 concentration −8.0): 2.035 | Percent Growth ([8]; log10 concentration −8.0): 98% | GI50 ([9]; NCI-H23): 260 nM | CC50 ([9]; NCI-H23, read-out: LC50): > 100000 nM | TGI ([10]; HOP-92 (Non-Small Cell Lung Cancer)): >1.00E−4 | Mean Optical Densities [10, 29]: 0.594 | Percent Growth [10, 29]: 12% | Mean Optical Densities [10, 30]: 0.612 | Percent Growth [10, 30]: 16% | Mean Optical Densities [10, 31]: 0.645 | Percent Growth [10, 31]: 22% | Mean Optical Densities [10, 32]: 0.981 | Percent Growth [10, 32]: 86% | Mean Optical Densities [10, 33]: 1.050 | Percent Growth [10, 33]: 99% | GI50 ([11]; SF-268): 326 nM | CC50 ([11]; SF-268, read-out: LC50): > 100000 nM | TGI ([12]; KM12 (Colon Cancer)): >1.00E−4 | Mean Optical Densities ([12]; KM12, log10 concentration −4.0): 0.305 | Percent Growth ([12]; KM12, log10 concentration −4.0): 10% | Mean Optical Densities ([12]; KM12, log10 concentration −5.0): 0.304 | Percent Growth ([12]; KM12, log10 concentration −5.0): 10% | Mean Optical Densities ([12]; KM12, log10 concentration −6.0): 0.318 | Percent Growth ([12]; KM12, log10 concentration −6.0): 12% | Mean Optical Densities ([12]; KM12, log10 concentration −7.0): 0.802 | Percent Growth ([12]; KM12, log10 concentration −7.0): 80% | Mean Optical Densities ([12]; KM12, log10 concentration −8.0): 1.036 | Percent Growth ([12]; KM12, log10 concentration −8.0): 113% | GI50 ([13]; PC-3): 314 nM | CC50 ([13]; PC-3, read-out: LC50): > 100000 nM | TGI ([14]; HCT-15 (Colon Cancer)): >1.00E−4 | Mean Optical Densities [14, 34]: 0.268 | Percent Growth [14, 34]: 2% | Mean Optical Densities [14, 35]: 0.286 | Percent Growth [14, 35]: 3% | Mean Optical Densities [14, 36]: 0.481 | Percent Growth [14, 36]: 21% | Mean Optical Densities [14, 37]: 1.262 | Percent Growth [14, 37]: 90% | Mean Optical Densities [14, 38]: 1.354 | Percent Growth [14, 38]: 98%
